US20240287007A1, “N-(1,3,4-OXADIAZOL-2-YL)PHENYLCARBOXAMIDES AS HERBICIDES” (BAYER AKTIENGESELLSCHAFT, priority 2021, published 2024)

Experiments:
Format in all cases: in vivo
[1] = test system: ECHCG (Echinochloa crus-galli); assay: Pre-emergence herbicidal effect against ECHCG; conditions: scored visually after 3 weeks
From the text: (§1) Seeds of monocotyledonous and dicotyledonous weed plants and crop plants are laid out in sandy loam soil in wood-fiber pots and covered with soil. The compounds of the invention, formulated in the form of wettable powders (WP) or as emulsion concentrates (EC), are then applied to the surface of the covering soil as aqueous suspension or emulsion at a water application rate equating to 600 to 800 l/ha with addition of 0.2% wetting agent. After the treatment, the pots are placed in a greenhouse and kept under good growth conditions for the trial plants. The damage to the test plants is scored visually after a test period of 3 weeks by comparison with untreated controls (herbicidal activity in percent (%): 100% activity=the plants have died, 0% activity=like control plants).

[2] = test system: POLCO (Polygonum convolvulus); assay: Post-emergence herbicidal action against POLCO; conditions: visual assessment after about 3 weeks
Description: (§2) Seeds of monocotyledonous and dicotyledonous weed and crop plants are laid out in sandy loam soil in wood-fiber pots, covered with soil and cultivated in a greenhouse under good growth conditions. 2 to 3 weeks after sowing, the trial plants are treated at the one-leaf stage. The compounds of the invention, formulated in the form of wettable powders (WP) or as emulsion concentrates (EC), are then sprayed onto the green parts of the plants as aqueous suspension or emulsion at a water application rate equating to 600 to 800 l/ha with addition of 0.2% wetting agent. After the test plants have been left to stand in the greenhouse under optimal growth conditions for about 3 weeks, the action of the preparations is assessed visually in comparison to untreated controls (herbicidal action in percent (%): 100% activity=the plants have died, 0% activity=like control plants).

VERPE (Veronica persica) [3] = assay: Pre-emergence herbicidal effect against VERPE; conditions: scored visually after 3 weeks
From the text: as §1

SETVI (Setaria viridis) [4] = assay: Pre-emergence herbicidal effect against SETVI; conditions: scored visually after 3 weeks
From the text: as §1

[5] = test system: DIGSA (Digitaria sanguinalis); assay: Post-emergence herbicidal action against DIGSA; conditions: visual assessment after about 3 weeks
Description: as §2

[6] = test system: ALOMY (Alopecurus myosuroides); assay: Pre-emergence herbicidal effect against ALOMY; conditions: scored visually after 3 weeks
From the text: as §1

[7] = test system: ABUTH (Abutylon threophrasti); assay: Pre-emergence herbicidal effect against ABUTH; conditions: 80 g/ha, scored visually after 3 weeks
From the text: as §1

[8] = test system: MATIN (Matricaria inodora); assay: Post-emergence herbicidal action against MATIN; conditions: visual assessment after about 3 weeks
Description: as §2

LOLRI (Lolium rigidum) [9] = assay: Post-emergence herbicidal action against LOLRI; conditions: visual assessment after about 3 weeks
Description: as §2

VIOTR (Viola tricolor) [10] = assay: Post-emergence herbicidal action against VIOTR; conditions: visual assessment after about 3 weeks
Description: as §2

SETVI (Setaria viridis) [11] = assay: Post-emergence herbicidal action against SETVI; conditions: visual assessment after about 3 weeks
Description: as §2

[12] = test system: MATIN (Matricaria inodora); assay: Pre-emergence herbicidal effect against MATIN; conditions: scored visually after 3 weeks
From the text: as §1

[13] = test system: ALOMY (Alopecurus myosuroides); assay: Post-emergence herbicidal action against ALOMY; conditions: visual assessment after about 3 weeks
Description: as §2

[14] = test system: ABUTH (Abutylon threophrasti); assay: Post-emergence herbicidal action against ABUTH; conditions: visual assessment after about 3 weeks
Description: as §2

[15] = test system: POLCO (Polygonum convolvulus); assay: Pre-emergence herbicidal effect against POLCO; conditions: scored visually after 3 weeks
From the text: as §1

AVEFA (Avena fatua) = assay: Pre-emergence herbicidal effect against AVEFA; conditions: scored visually after 3 weeks
From the text: as §1

VERPE (Veronica persica) [16] = assay: Post-emergence herbicidal action against VERPE; conditions: visual assessment after about 3 weeks
Description: as §2

LOLRI (Lolium rigidum) [17] = assay: Pre-emergence herbicidal effect against LOLRI; conditions: scored visually after 3 weeks
From the text: as §1

KCHSC (Kochia scoparia) [18] = assay: Pre-emergence herbicidal effect against KCHSC; conditions: scored visually after 3 weeks
From the text: as §1

KCHSC (Kochia scoparia) [19] = assay: Post-emergence herbicidal action against KCHSC; conditions: visual assessment after about 3 weeks
Description: as §2

[20] = test system: AMARE (Amaranthus retroflexus); assay: Pre-emergence herbicidal effect against AMARE; conditions: scored visually after 3 weeks
From the text: as §1

[21] = test system: DIGSA (Digitaria sanguinalis); assay: Pre-emergence herbicidal effect against DIGSA; conditions: scored visually after 3 weeks
From the text: as §1

[22] = test system: PHBPU (Pharbitis purpurea); assay: Pre-emergence herbicidal effect against PHBPU; conditions: 80 g/ha, scored visually after 3 weeks
From the text: as §1

[23] = test system: AMARE (Amaranthus retroflexus); assay: Post-emergence herbicidal action against AMARE; conditions: visual assessment after about 3 weeks
Description: as §2

VIOTR (Viola tricolor) [24] = assay: Pre-emergence herbicidal effect against VIOTR; conditions: scored visually after 3 weeks
From the text: as §1

[25] = test system: PHBPU (Pharbitis purpurea); assay: Post-emergence herbicidal action against PHBPU; conditions: visual assessment after about 3 weeks
Description: as §2

SMILES: C[S+]([O-])c1c(OC(F)(F)F)ccc(C(=O)Nc2nnco2)c1Cl (racemic) [Example 1-32, 2-chloro-3-(methylsulfinyl)-N-(1,3,4-oxadiazol-2-yl)-4-(trifluoromethoxy)benzamide]
- Pre-emergence effect at 20 g/ha against ECHCG in % ([1]; 20 g/ha): 100%
- Pre-emergence effect at 80 g/ha against ECHCG in % ([1]; 80 g/ha): 100%
- Post-emergence effect at 20 g/ha against POLCO in % ([2]; 20 g/ha): 90%
- Post-emergence effect at 80 g/ha against POLCO in % ([2]; 80 g/ha): 100%
- Pre-emergence effect at 20 g/ha against VERPE in % (VERPE (Veronica persica) [3]; 20 g/ha): 80%
- Pre-emergence effect at 80 g/ha against VERPE in % (VERPE (Veronica persica) [3]; 80 g/ha): 90%
- Pre-emergence effect at 20 g/ha against SETVI in % (SETVI (Setaria viridis) [4]; 20 g/ha): 90%
- Pre-emergence effect at 80 g/ha against SETVI in % (SETVI (Setaria viridis) [4]; 80 g/ha): 100%
- Post-emergence effect at 20 g/ha against DIGSA in % ([5]; 20 g/ha): 90%
- Post-emergence effect at 80 g/ha against DIGSA in % ([5]; 80 g/ha): 90%
- Pre-emergence effect at 20 g/ha against ALOMY in % ([6]; 20 g/ha): 80%
- Pre-emergence effect at 80 g/ha against ALOMY in % ([6]; 80 g/ha): 100%
- Pre-emergence effect at 80 g/ha against ABUTH in % [7]: 100%
- Post-emergence effect at 20 g/ha against MATIN in % ([8]; 20 g/ha): 100%
- Post-emergence effect at 80 g/ha against MATIN in % ([8]; 80 g/ha): 100%
- Post-emergence effect at 80 g/ha against LOLRI in % (LOLRI (Lolium rigidum) [9]): 90%
- Post-emergence effect at 20 g/ha against VIOTR in % (VIOTR (Viola tricolor) [10]; 20 g/ha): 100%
- Post-emergence effect at 80 g/ha against VIOTR in % (VIOTR (Viola tricolor) [10]; 80 g/ha): 100%
- Post-emergence effect at 20 g/ha against SETVI in % (SETVI (Setaria viridis) [11]; 20 g/ha): 100%
- Post-emergence effect at 80 g/ha against SETVI in % (SETVI (Setaria viridis) [11]; 80 g/ha): 100%
- Pre-emergence effect at 20 g/ha against MATIN in % ([12]; 20 g/ha): 100%
- Pre-emergence effect at 80 g/ha against MATIN in % ([12]; 80 g/ha): 100%
- Post-emergence effect at 20 g/ha against ALOMY in % ([13]; 20 g/ha): 80%
- Post-emergence effect at 80 g/ha against ALOMY in % ([13]; 80 g/ha): 90%
- Post-emergence effect at 20 g/ha against ABUTH in % ([14]; 20 g/ha): 90%
- Post-emergence effect at 80 g/ha against ABUTH in % ([14]; 80 g/ha): 100%
- Pre-emergence effect at 20 g/ha against POLCO in % ([15]; 20 g/ha): 90%
- Pre-emergence effect at 80 g/ha against POLCO in % ([15]; 80 g/ha): 90%
- Pre-emergence effect at 20 g/ha against AVEFA in % (AVEFA (Avena fatua); 20 g/ha): 80%
- Pre-emergence effect at 80 g/ha against A VEFA in % (AVEFA (Avena fatua); 80 g/ha): 100%
- Post-emergence effect at 20 g/ha against VERPE in % (VERPE (Veronica persica) [16]; 20 g/ha): 90%
- Post-emergence effect at 80 g/ha against VERPE in % (VERPE (Veronica persica) [16]; 80 g/ha): 100%
- Pre-emergence effect at 20 g/ha against LOLRI in % (LOLRI (Lolium rigidum) [17]; 20 g/ha): 90%
- Pre-emergence effect at 80 g/ha against LOLRI in % (LOLRI (Lolium rigidum) [17]; 80 g/ha): 90%
- Pre-emergence effect at 20 g/ha against KCHSC in % (KCHSC (Kochia scoparia) [18]; 20 g/ha): 100%
- Pre-emergence effect at 80 g/ha against KCHSC in % (KCHSC (Kochia scoparia) [18]; 80 g/ha): 100%
- Post-emergence effect at 20 g/ha against KCHSC in % (KCHSC (Kochia scoparia) [19]; 20 g/ha): 100%
- Post-emergence effect at 80 g/ha against KCHSC in % (KCHSC (Kochia scoparia) [19]; 80 g/ha): 100%
- Pre-emergence effect at 20 g/ha against AMARE in % ([20]; 20 g/ha): 100%
- Pre-emergence effect at 80 g/ha against AMARE in % ([20]; 80 g/ha): 100%
- Pre-emergence effect at 20 g/ha against DIGSA in % ([21]; 20 g/ha): 100%
- Pre-emergence effect at 80 g/ha against DIGSA in % ([21]; 80 g/ha): 100%
- Pre-emergence effect at 80 g/ha against PHBPU in % [22]: 90%
- Post-emergence effect at 20 g/ha against AMARE in % ([23]; 20 g/ha): 100%
- Post-emergence effect at 80 g/ha against AMARE in % ([23]; 80 g/ha): 100%
- Pre-emergence effect at 20 g/ha against VIOTR in % (VIOTR (Viola tricolor) [24]; 20 g/ha): 100%
- Pre-emergence effect at 80 g/ha against VIOTR in % (VIOTR (Viola tricolor) [24]; 80 g/ha): 100%
- Post-emergence effect at 20 g/ha against PHBPU in % ([25]; 20 g/ha): 90%
- Post-emergence effect at 80 g/ha against PHBPU in % ([25]; 80 g/ha): 100%
